Measurements taken from patent US20190112316A1, “THIAZOLO[3,2-A] PYRIMIDINONE AND OTHER HETEROBICYCLIC PYRIMIDINONE COMPOUNDS FOR USE IN MEDICAL THERAPY” (priority 2015, published 2019).
Values after ≈ are worked out from the molar mass of the structure shown.

Legend:
[1] = biological target: T1, glucocerebrosidase (Gcase) (Homo sapiens, UniProt P04062); assay: Glucocerebrosidase (Gcase) activation assay, 4-methylumbelliferyl-beta-D-glucopyranoside substrate, with saposin C; assay type: biochemical; details: for activation at 0.1 µM: read-out: Percent Gcase Activation 0.1 μM Test Compound; for activation at 1 µM: read-out: Percent Gcase Activation 1 μM Test Compound
T1 construct: micellar solution containing 10 nM GCase and 100 nM saposin C (Enzo ALX-201-262-C050)
T1 sequence (P04062 40-536): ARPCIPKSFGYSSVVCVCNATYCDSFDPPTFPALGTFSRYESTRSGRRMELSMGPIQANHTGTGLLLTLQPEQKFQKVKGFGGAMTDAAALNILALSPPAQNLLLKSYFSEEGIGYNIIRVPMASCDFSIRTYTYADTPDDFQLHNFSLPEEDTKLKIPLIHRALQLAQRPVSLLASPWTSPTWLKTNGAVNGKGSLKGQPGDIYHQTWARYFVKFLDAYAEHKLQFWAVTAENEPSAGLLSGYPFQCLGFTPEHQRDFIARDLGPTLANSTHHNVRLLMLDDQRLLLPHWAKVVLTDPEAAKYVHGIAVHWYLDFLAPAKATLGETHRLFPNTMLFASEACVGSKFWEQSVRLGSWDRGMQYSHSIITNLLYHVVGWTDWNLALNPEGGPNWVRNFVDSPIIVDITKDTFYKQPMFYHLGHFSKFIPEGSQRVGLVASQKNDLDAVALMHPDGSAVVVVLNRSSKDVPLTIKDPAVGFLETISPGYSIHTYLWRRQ
Method: A 484 μL aliquot of a 1.0 mg/mL solution of phosphatidylserine (PS) (Sigma P7769) in chloroform was evaporated under a stream of nitrogen for 1 hour. The lipid film was dissolved over 4 minutes of vigorous vortexing in 40 mL of 176 mM K2HPO4/50 mM citric acid (pH 4.7) containing 7.5 μL of triton X-100, resulting in a mixed micellar preparation with a composition of 0.32 mM triton and 0.37 mol % PS. 4-Methylumbelliferyl-beta-D-glucopyranoside (ACROS-337025000) was dissolved in the micellar solution to a final concentration of 2 mM for use as the reaction substrate.
Test compounds were diluted to the desired concentrations with dimethylsulfoxide (DMSO) from 10 mM stocks, and 0.41 μL of the DMSO compound mixture was added to 100 μL of micellar solution containing 10 nM GCase and 100 nM saposin C (Enzo ALX-201-262-C050). Pre-incubation was allowed to occur for 30 minutes at room temperature, after which the reaction was initiated by combining 25 μL of substrate solution with 25 μL of compound/GCase/saposin mixture. The reaction proceeded for 15 minutes at room temperature and was stopped by adding 150 μL of 1M glycine, pH 12.5. The endpoint of the reaction was monitored by measuring fluorescence intensity (excitation: 365 nm; emission: 440 nm) on a SpectraMax i3 instrument (Molecular Devices). Test compounds were screened at 1.0 and 0.1 μM final concentration, and subsequent 8-point dose response curves were obtained using 3-fold dilutions from a maximum final concentration of 5 μM.

[2] = Compound solubility in water; assay type: physicochemical

Compound | activation at 0.1 µM [1] | activation at 1 µM [1] | solubility [2]
CCc1ccc(NC(=O)c2cnc3n(c2=O)CCS3)cc1 | < 5% | > 20% | 5.1 µg/mL (≈ 16.9 µM)
CCC(C)c1ccc(NC(=O)c2cnc3n(c2=O)CCS3)cc1 (stereo not shown) | 5 to 20% | > 20% | 0.3 µg/mL (≈ 0.911 µM)
CCCCC1CCC(NC(=O)c2cnc3n(c2=O)C(C)CS3)CC1 (stereo not shown) | 5 to 20% | > 20% | 1.3 µg/mL (≈ 3.72 µM)
CCCCC1CCC(NC(=O)c2cnc3n(c2=O)CC(C)S3)CC1 (stereo not shown) | < 5% | > 20% | 1.2 µg/mL (≈ 3.43 µM)
O=C(Nc1ccc2c(c1)CCC2)c1cnc2n(c1=O)CCS2 | < 5% | 5 to 20% | 0.3 µg/mL (≈ 0.957 µM)
O=C(Nc1ccc(-c2cocn2)cc1)c1cnc2n(c1=O)CCS2 | < 5% | < 5% | –
O=C(Nc1ccc(-c2ccco2)cc1)c1cnc2n(c1=O)CCS2 | 5 to 20% | 5 to 20% | –
O=C(Nc1ccc(-c2cccs2)cc1)c1cnc2n(c1=O)CCS2 | 5 to 20% | 5 to 20% | –
COCC#Cc1ccc(NC(=O)c2cnc3n(c2=O)CCS3)cc1 | 5 to 20% | 5 to 20% | –
Cc1ccc(NC(=O)c2cnc3n(c2=O)CCS3)cc1-c1ncco1 | < 5% | 5 to 20% | –
CC1CCC(NC(=O)c2cnc3n(c2=O)CCS3)CC1 (stereo not shown) | < 5% | 5 to 20% | 21.4 µg/mL (≈ 72.9 µM)
O=C(NC1CCCCCC1)c1cnc2n(c1=O)CCS2 | < 5% | 5 to 20% | 20.8 µg/mL (≈ 70.9 µM)
O=C(Nc1ccc(-n2ccnc2)cc1)c1cnc2n(c1=O)CCS2 | < 5% | < 5% | 0.8 µg/mL (≈ 2.36 µM)
O=C(NC1CCCc2ccccc21)c1cnc2n(c1=O)CCS2 (stereo not shown) | < 5% | > 20% | 7.1 µg/mL (≈ 21.7 µM)
O=C(NC1CC2CCC1C2)c1cnc2n(c1=O)CCS2 (stereo not shown) | < 5% | < 5% | –
O=C(NC1CCc2ccccc21)c1cnc2n(c1=O)CCS2 (stereo not shown) | < 5% | 5 to 20% | 17.6 µg/mL (≈ 56.2 µM)
O=C(Nc1ccc2c(c1)OCCO2)c1cnc2n(c1=O)CCS2 | < 5% | < 5% | 9.5 µg/mL (≈ 28.7 µM)
O=C(NC1CCOCC1)c1cnc2n(c1=O)CCS2 | < 5% | 5 to 20% | 26.3 µg/mL (≈ 93.5 µM)
CCN1CCN(c2ccc(NC(=O)c3cnc4n(c3=O)CCS4)cc2)CC1 | < 5% | 5 to 20% | 34.8 µg/mL (≈ 90.3 µM)
O=C(Nc1ccc(N2CCCCC2)cc1)c1cnc2n(c1=O)CCS2 | < 5% | < 5% | 4 µg/mL (≈ 11.2 µM)
C[C@@H](NC(=O)c1cnc2n(c1=O)CCS2)c1ccccc1 | < 5% | < 5% | 36.8 µg/mL (≈ 122 µM)
C[C@H](NC(=O)c1cnc2n(c1=O)CCS2)c1ccccc1 | 5 to 20% | 5 to 20% | 37.2 µg/mL (≈ 123 µM)
CC(Cc1ccc(Cl)cc1)NC(=O)c1cnc2n(c1=O)CCS2 (stereo not shown) | < 5% | 5 to 20% | 16.7 µg/mL (≈ 47.7 µM)

Compound | activation at 0.1 µM [1] | activation at 1 µM [1] | solubility [2]
O=C(NC1CCC(c2ccccc2)CC1)c1cnc2n(c1=O)CCS2 (stereo not shown) | 5 to 20% | > 20% | 10.6 µg/mL (≈ 29.8 µM)
CN1Cc2ccc(NC(=O)c3cnc4n(c3=O)CCS4)cc2C1 | < 5% | 5 to 20% | 32.4 µg/mL (≈ 98.7 µM)
O=C(NC1CCc2ccccc2C1)c1cnc2n(c1=O)CCS2 (stereo not shown) | < 5% | 5 to 20% | 30.7 µg/mL (≈ 93.8 µM)
C#Cc1ccc(NC(=O)c2cnc3n(c2=O)CCS3)cc1 | < 5% | 5 to 20% | 1.5 µg/mL (≈ 5.04 µM)
CCCCc1ccc(NC(=O)c2cnc3n(c2=O)CCS3)cc1 | 5 to 20% | > 20% | 0.2 µg/mL (≈ 0.607 µM)
O=C(Nc1ccc(C2CCCCC2)cc1)c1cnc2n(c1=O)CCS2 | 5 to 20% | > 20% | –
CCCCC1CCC(NC(=O)c2cnc3n(c2=O)CCS3)CC1 (stereo not shown) | 5 to 20% | > 20% | –
O=C(NC1CCOc2ccccc21)c1cnc2n(c1=O)CCS2 (stereo not shown) | < 5% | 5 to 20% | –
O=C(NCCOc1ccccc1)c1cnc2n(c1=O)CCS2 | < 5% | 5 to 20% | –
O=C(NC1CCC2(CCCCO2)CC1)c1cnc2n(c1=O)CCS2 (stereo not shown) | < 5% | < 5% | 29.5 µg/mL (≈ 84.4 µM)
O=C(NC1CCCC2(CCCCO2)C1)c1cnc2n(c1=O)CCS2 (stereo not shown) | < 5% | < 5% | 36 µg/mL (≈ 103 µM)
O=C(NC1CCCCC12CCCCO2)c1cnc2n(c1=O)CCS2 (stereo not shown) | < 5% | < 5% | 37.2 µg/mL (≈ 106 µM)
Cc1ccc(NC(=O)c2cnc3scc(C)n3c2=O)cc1C | – | 5 to 20% | –
Cc1csc2ncc(C(=O)Nc3ccc(F)cc3)c(=O)n12 | – | < 5% | –
Cc1sc2ncc(C(=O)Nc3ccc(C(C)C)cc3)c(=O)n2c1C | – | < 5% | –
Cc1csc2ncc(C(=O)Nc3ccc(Cl)cc3)c(=O)n12 | – | > 20% | –
Cc1ccc(NC(=O)c2cnc3scc(C)n3c2=O)cc1F | – | 5 to 20% | –
CCc1ccc(NC(=O)c2cnc3scc(-c4ccccc4)n3c2=O)cc1 | – | > 20% | –
CCCCc1ccc(NC(=O)c2cnc3scc(-c4ccccc4)n3c2=O)cc1 | – | > 20% | –
CCc1ccc(NC(=O)c2cnc3sccn3c2=O)cc1 | 5 to 20% | > 20% | –
Cc1ccc(CNC(=O)c2cnc3scc(C)n3c2=O)cc1 | – | 5 to 20% | –
COc1cccc(NC(=O)c2cnc3scc(C)n3c2=O)c1 | – | 5 to 20% | –
COc1ccc(NC(=O)c2cnc3scc(C)n3c2=O)cc1 | – | > 20% | –

Compound | activation at 0.1 µM [1] | activation at 1 µM [1] | solubility [2]
CCOc1ccccc1NC(=O)c1cnc2scc(C)n2c1=O | – | 5 to 20% | –
CCOc1ccc(NC(=O)c2cnc3scc(C)n3c2=O)cc1 | – | 5 to 20% | –
Cc1csc2ncc(C(=O)Nc3ccc(Oc4ccccc4)cc3)c(=O)n12 | 5 to 20% | > 20% | –
COc1ccc(NC(=O)c2cnc3scc(C)n3c2=O)c(OC)c1 | – | 5 to 20% | –
CCCCc1ccc(NC(=O)c2cnc3scc(C)n3c2=O)cc1 | 5 to 20% | > 20% | –
CCc1cccc(NC(=O)c2cnc3scc(C)n3c2=O)c1 | – | > 20% | –
Cc1csc2ncc(C(=O)Nc3ccc(N(C)C)cc3)c(=O)n12 | – | 5 to 20% | –
CCC(C)c1ccc(NC(=O)c2cnc3sccn3c2=O)cc1 (stereo not shown) | < 5% | > 20% | –
Cc1ccc(NC(=O)c2cnc3sccn3c2=O)cc1C | – | 5 to 20% | –
COC(=O)c1ccc(NC(=O)c2cnc3scc(C)n3c2=O)cc1 | – | 5 to 20% | –
Cc1ccc(NC(=O)c2cnc3sc(C)cn3c2=O)cc1 | – | 5 to 20% | –
Cc1cc(C)cc(NC(=O)c2cnc3sccn3c2=O)c1 | – | 5 to 20% | –
Cc1ccccc1NC(=O)c1cnc2scc(C)n2c1=O | – | 5 to 20% | –
Cc1ccc(NC(=O)c2cnc3scc(C)n3c2=O)c(C)c1 | – | > 20% | –
Cc1ccc(NC(=O)c2cnc3scc(C)n3c2=O)cc1Cl | – | 5 to 20% | –
CCCCOC(=O)c1ccc(NC(=O)c2cnc3scc(C)n3c2=O)cc1 | – | > 20% | –
CCCCc1ccc(NC(=O)c2cnc3sc4c(n3c2=O)CCCC4)cc1 | – | 5 to 20% | –
Cc1csc2ncc(C(=O)Nc3ccc(-c4cocn4)cc3)c(=O)n12 | < 5% | 5 to 20% | –
Cc1csc2ncc(C(=O)Nc3ccc4c(c3)OCO4)c(=O)n12 | < 5% | 5 to 20% | –
Cc1cccc2ncc(C(=O)NC3CC4CCC3C4)c(=O)n12 (stereo not shown) | < 5% | 5 to 20% | –
Cc1ccn2c(=O)c(C(=O)NC3CCc4ccccc4C3)cnc2c1 (stereo not shown) | < 5% | 5 to 20% | –
Cc1cccc2ncc(C(=O)NC3CCOc4ccccc43)c(=O)n12 (stereo not shown) | < 5% | 5 to 20% | –
Cc1cccc2ncc(C(=O)NCCOc3ccccc3)c(=O)n12 | < 5% | 5 to 20% | –
